# Laboratory results: paper PMC2559975 (Journal of medicinal chemistry, 2008)
# Read-outs that look alike come from different tables or passages of the source.
# What was measured:
# [1] = tested on: CCRF-CEM human leukemia cell line; assay: In vitro cytotoxic activity; format: cell-based; details: for Times less potent than 2 in the CCRF-CEM assay: relative to 2
# CCRF-CEM/FPGS^- = format: cell-based, human; details: relative to CCRF-CEM
# [2] = tested on: CCRF-CEM human leukemia cell line; details: read-out: IC50, CCRF-CEM; equi-mixture of C10-diastereomers; cited from earlier work
# rhGAR Tfase = molecular target: T1, rhGAR Tfase (Homo sapiens, UniProt P22102); assay: GAR Tfase enzyme inhibition assay; format: biochemical
# T1 sequence (P22102 808-1010 limits assumed): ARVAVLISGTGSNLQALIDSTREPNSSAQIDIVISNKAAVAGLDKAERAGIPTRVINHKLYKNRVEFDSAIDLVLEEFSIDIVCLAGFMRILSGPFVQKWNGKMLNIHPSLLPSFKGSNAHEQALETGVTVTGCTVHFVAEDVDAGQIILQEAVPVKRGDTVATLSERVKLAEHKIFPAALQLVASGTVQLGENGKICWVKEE
# [3] = Homo sapiens, CCRF-CEM, read-out: IC50 [(-)T, (-)H] CCRF-CEM
compound,measurement,setting,value
10-hydroxy-DDACTHF [Compound 10R-7],IC50,"[1]; read-out: CCRF-CEM IC50, (+) T, (-) H, Table 2, thymidine added, no hypoxanthine",5700 nM
same,IC50,"[1]; read-out: CCRF-CEM IC50, (-) T, (+) H, Table 2, hypoxanthine added, no thymidine",> 10000 nM
"Nc1nc(N)c(CCCC(C(=O)C(F)(F)F)c2ccc(C(=O)N[C@@H](CCC(=O)O)C(=O)O)cc2)c(=O)[nH]1 (some centres unmarked) [Compound 2, 10-CF3CO-DDACTHF, reference compound]",IC50,[1]; [3],60 nM
"CSC(CCCc1c(N)nc(N)[nH]c1=O)c1ccc(C(=O)N[C@@H](CCC(=O)O)C(=O)O)cc1 (some centres unmarked) [Compound 3, 10-methylthio-DDACTHF]",Loss of activity against the cell line that lacks FPGS,CCRF-CEM/FPGS^-,ca. 100 fold
same,IC50,[2],100 nM
"Nc1nc(N)c(CCCC2(c3ccc(C(=O)N[C@@H](CCC(=O)O)C(=O)O)cc3)SCCCS2)c(=O)[nH]1 [Compound 9, (S)-2-(4-(2-(3-(2,4-Diamino-6-oxo-1,6-dihydropyrimidin-5-yl)propyl)-1,3-dithian-2-yl)benzamido)pentanedioic Acid]",Activity in the CCRF-CEM cell-based assay (in words),[1],no activity
"CS[C@H](CCCc1c(N)nc(N)[nH]c1=O)c1ccc(C(=O)N[C@@H](CCC(=O)O)C(=O)O)cc1 [Compound 10R-3, (S)-2-(4-((R)-4-(2,4-Diamino-6-oxo-1,6-dihydropyrimidin-5-yl)-1-(methylthio)butyl)benzamido)pentanedioic Acid]",IC50,[1]; [3],90 nM
same,Times less potent than 2 in the CCRF-CEM assay,[1],3-5 times
"CS[C@@H](CCCc1c(N)nc(N)[nH]c1=O)c1ccc(C(=O)N[C@@H](CCC(=O)O)C(=O)O)cc1 [Compound 10S-3, 10-methylthio-DDACTHF]",Times less potent than 2 in the CCRF-CEM assay,[1],3-5 times
"Nc1nc(N)c(CCC[C@H](O)c2ccc(C(=O)N[C@@H](CCC(=O)O)C(=O)O)cc2)c(=O)[nH]1 [Compound 10S-7, (S)-2-(4-((S)-4-(2,4-Diamino-6-oxo-1,6-dihydropyrimidin-5-yl)-1-hydroxybutyl)benzamido)pentanedioic Acid]",Ki,rhGAR Tfase,1210 nM
"CO[C@@H](CCCc1c(N)nc(N)[nH]c1=O)c1ccc(C(=O)N[C@@H](CCC(=O)O)C(=O)O)cc1 [Compound 10S-8, (S)-2-(4-((S)-4-(2,4-Diamino-6-oxo-1,6-dihydropyrimidin-5-yl)-1-methoxybutyl)benzamido)pentanedioic Acid]",IC50,[1]; [3],800 nM
